Data from patent publication US20240277700A1, “COMPOSITIONS AND METHODS FOR TREATING AND PREVENTING INTERSTITIAL CYSTITIS” (Hista RX LLC, priority 2021, published 2024).

Columns and labels:
[1] = test system: patient with interstitial cystitis; experiment: Example 2: case report, patient with chronic interstitial cystitis and IBS-diarrhea; settings: person; before the combination
[2] = test system: patient with painful bladder syndrome; experiment: Example 3: case report, patient with chronic painful bladder syndrome; assay type: in vivo, human; settings: person; prior treatment without the combination
[3] = test system: patients with IC; settings: cited from earlier work

Compound: COc1ccc2nc([S@@+]([O-])Cc3ncc(C)c(OC)c3C)[nH]c2c1 [Esomeprazole]
- resolution of urologic and/or gastrointestinal conditions by previous medications [1]: without resolution

Compound: OCCOCCN1CCN(C(c2ccccc2)c2ccc(Cl)cc2)CC1 (centres unmarked) [Hydroxyzine]
- symptomatic relief by prior treatment [2]: insufficient
- benefit in the treatment of IC ([3]; monotherapy): some limited benefit

Compound: CN/C(=N/CCSCc1nc[nH]c1C)NC#N [cimetidine]
- symptomatic relief of IC ([3]; monotherapy 300 mg bid (600 mg daily) for one month, case series of 9 patients): effective

Compound: Sucralfate
- resolution of urologic and/or gastrointestinal conditions by previous medications [1]: without resolution
